From patent publication US9550811B2, “Peptide scaffold design” (BIONOR IMMUNO AS, priority 2010, dated 2017)
Read-outs that look alike come from different tables or passages of the source.

Assays:
HLA-B27 = HLA-B27 (Homo sapiens, UniProt P01889, D138H/D201E/E176V/E204Q/G107R/H137Y/K202T/N104T/N87E/Q56L/Q94K/R106L/R155S/R180L/S101D/S121N/S48T/Y140D/Y33H/Y91C); assay: REVEAL binding assay; conditions: score as percentage of the signal generated by the positive control peptide
Procedure: (§1) Binding properties to HLA for the ninemers listed in table 6 were tested for the following HLA-classes:
(§2) HLA-A1, HLA-A2, HLA-A3, HLA-A11, HLA-A24, HLA-A29, HLA-B7, HLA-B8, HLA-B14, HLA-B15, HLA-B27, HLA-B35, HLA-B40.
(§3) The peptides were synthesized as a Prospector PEPscreen®: Custom Peptide Library. […] Quality control by MALDI-TOF Mass Spectrometry was carried out on 100% of samples.
(§4) The REVEAL™ binding assay determined the ability of each candidate peptide to bind to one or more MHC class I alleles and stabilizing the MHC-peptide complex. By comparing the binding to that of high and intermediate affinity T cell epitopes, the most likely immunogenic peptides in a protein sequence can be identified. Detection is based on the presence or absence of the native conformation of the MHC-peptide complex. Each peptide is given a score relative to the positive control peptide, which is a known T cell epitope.

HLA-A3 = HLA-A3 (Homo sapiens, UniProt P04439); assay: REVEAL binding assay; conditions: score as percentage of the signal generated by the positive control peptide
HLA-A3, sequence (P04439 25-299): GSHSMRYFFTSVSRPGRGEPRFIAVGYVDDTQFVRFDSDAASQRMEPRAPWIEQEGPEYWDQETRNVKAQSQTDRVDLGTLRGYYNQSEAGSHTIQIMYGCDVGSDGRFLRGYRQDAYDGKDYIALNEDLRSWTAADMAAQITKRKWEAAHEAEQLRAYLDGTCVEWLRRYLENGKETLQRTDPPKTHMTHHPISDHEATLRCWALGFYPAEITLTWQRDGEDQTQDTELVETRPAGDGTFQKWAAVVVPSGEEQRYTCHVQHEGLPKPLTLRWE
HLA-A3, sequence (P61769 21-119, further chain): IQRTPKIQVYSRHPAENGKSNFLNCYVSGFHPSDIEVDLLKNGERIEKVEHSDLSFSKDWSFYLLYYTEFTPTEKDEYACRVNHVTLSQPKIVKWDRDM
Procedure: as §1, §2, §3, §4

HLA-B7 = HLA-B7 (Homo sapiens, UniProt P01889); assay: REVEAL binding assay; conditions: score as percentage of the signal generated by the positive control peptide
HLA-B7, sequence (P61769 21-119): as the sequence (P61769 21-119, further chain) above
HLA-B7, sequence (P01889 25-299): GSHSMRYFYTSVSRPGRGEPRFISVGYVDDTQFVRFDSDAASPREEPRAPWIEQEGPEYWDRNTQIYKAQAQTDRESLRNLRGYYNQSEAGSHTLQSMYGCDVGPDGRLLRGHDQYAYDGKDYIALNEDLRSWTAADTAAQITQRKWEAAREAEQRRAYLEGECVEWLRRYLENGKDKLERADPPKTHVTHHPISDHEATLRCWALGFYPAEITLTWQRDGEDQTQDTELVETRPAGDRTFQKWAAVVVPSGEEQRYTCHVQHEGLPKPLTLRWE
Procedure: as §1, §2, §3, §4

HLA-A2 = HLA-A2 (Homo sapiens, UniProt P04439, D140Y/D185E/D98H/E176V/E277Q/G131W/G231S/I119V/I121R/I166T/I218V/N151K/N90K/P208A/P217A/Q86G/Q94H/R138H/R169H); assay: REVEAL binding assay; conditions: score as percentage of the signal generated by the positive control peptide
Procedure: as §1, §2, §3, §4

HLA-A11 = HLA-A11 (Homo sapiens, UniProt P04439, A114D/F33Y/S129P); assay: REVEAL binding assay; conditions: score as percentage of the signal generated by the positive control peptide
Procedure: as §1, §2, §3, §4

HLA-B8 = assay: REVEAL binding assay; conditions: score as percentage of the signal generated by the positive control peptide
HLA-B14 = assay: REVEAL binding assay; conditions: score as percentage of the signal generated by the positive control peptide
Text: (§5) The REVEAL™ binding assay determined the ability of each candidate peptide to bind to one or more MHC class I alleles and stabilizing the MHC-peptide complex. […] Detection is based on the presence or absence of the native conformation of the MHC-peptide complex. Each peptide is given a score relative to the positive control peptide, which is a known T cell epitope.

HLA-B40 = assay: REVEAL binding assay; conditions: score as percentage of the signal generated by the positive control peptide
Procedure: as §1, §2
The peptides were synthesized as a Prospector PEPscreen®: Custom Peptide Library. Peptides 8-15 amino acids in length were synthesized in 0.5-2 mg quantities with high average purity. Quality control by MALDI-TOF Mass Spectrometry was carried out on 100% of samples.
as §4, with “epitope. The score of the test peptide is reported quantitatively as a percentage of the signal generated by the positive control peptide, and the peptide is indicated as having a putative pass or fail result. Assay performance is confirmed by including an intermediate control peptide that is known to bind with weaker affinity to the allele under investigation.” for “epitope.”

HLA-A24 = assay: REVEAL binding assay; conditions: score as percentage of the signal generated by the positive control peptide
HLA-B15 = assay: REVEAL binding assay; conditions: score as percentage of the signal generated by the positive control peptide
HLA-A1 = assay: REVEAL binding assay; conditions: score as percentage of the signal generated by the positive control peptide
HLA-B35 = assay: REVEAL binding assay; conditions: score as percentage of the signal generated by the positive control peptide
Text: as §5

HLA-A29 = assay: REVEAL binding assay; conditions: score as percentage of the signal generated by the positive control peptide
DC-cells = assay: Cell penetration assay: staining for biotinylated peptides, dendritic cells gated as CD11c+; format: cell-based, human; conditions: low concentration of peptides (208 uM)
Procedure: A set of peptides were biotinylated on N-terminal, and different combinations of aminoacids, with respect to length and type, were added to the sequence box X^1, X^3 and X^4 in the peptides as illustrated by the diagram below. The peptides were tested on cells grown from one individual blood donor.
96-well U-bottom polystyrene plates (NUNC, cat no: 163320) were used for staining of human PBMCs. Briefly, 8 ul of N- or C-terminally biotinylated peptides according to table 1 or table 2 (i.e. 5 mM, 2.5 mM & 1.25 mM tested for each peptide) were incubated at 37° C. for 2 h with 40 ul of PBMC (12.5×10^6 cells/ml) from blood donors. Cells were then washed 3× with 150 ul of Cellwash (BD, cat no: 349524), followed by resuspension of each cell pellet with 100 ul of Trypsin-EDTA (Sigma, cat no: T4424), then incubated at 37° C. for 5 min. Trypsinated cells were then washed 3× with 150 ul of Cellwash (BD, cat no: 349524), followed by resuspension with BD Cytofix/Cytoperm™ plus (BD, cat no: 554715), then incubated at 4° C. for 20 min according to manufacturer. Cells were then washed 2× with 150 ul PermWash (BD, cat no: 554715). Cells were then stained with Streptavidin-APC (BD, cat no: 554067) & Anti-hCD11c (eBioscience, cat no: 12-0116) according to manufacturer at 4° C. for 30 min aiming to visualize biotinylated peptides & dendritic cells, respectively. Cells were then washed 3× with 150 ul PermWash, followed by resuspension in staining buffer (BD, cat no: 554656) before flow cytometry. Dendritic cells were gated as CD11c+ events outside lymphocyte region (i.e. higher FSC & SSC signals than lymphocytes). 200 000 total cells were acquired on a FACSCanto II flow cytometer with HTS loader, and histograms for both total cells & dendritic cells with respect to peptide-fluorescence (i.e. GeoMean) were prepared.
As shown in table 4 the peptides according to the invention had the ability to allocate through the cell membrane.

human PBMCs = format: cell-based; conditions: With Cytofix/Cytoperm and trypsination, BC20

Row | Sequence | Results on DC-cells (geomean peptide-fluorescence) (DC-cells; BC 16) | Results on DC-cells (geomean peptide-fluorescence) (DC-cells; BC43) | Geomean value (peptide-fluorescence) (human PBMCs; concentration 104 μM) | Geomean value (peptide-fluorescence) (human PBMCs; concentration 208 μM) | Geomean value (peptide-fluorescence) (human PBMCs; concentration 417 μM) | Geomean value (peptide-fluorescence) (human PBMCs; concentration 833 μM) | also measured
1 | LGKVIDTLT |  |  |  |  |  |  | REVEAL binding score, HLA-type B27 (HLA-B27): 2.90%; REVEAL binding score, HLA-type A3 (HLA-A3): 7.39%; REVEAL binding score, HLA-type B7 (HLA-B7): 0.94%; REVEAL binding score, HLA-type A2 (HLA-A2): 4.05%; REVEAL binding score, HLA-type A11 (HLA-A11): 12.95%; REVEAL binding score, HLA-type B8 (HLA-B8): 17.96%; REVEAL binding score, HLA-type B14 (HLA-B14): 0.43%; REVEAL binding score, HLA-type B40 (HLA-B40): 44.92%; REVEAL binding score, HLA-type A24 (HLA-A24): 0.70%; REVEAL binding score, HLA-type B15 (HLA-B15): 7.14%; REVEAL binding score, HLA-type A1 (HLA-A1): 22.08%; REVEAL binding score, HLA-type B35 (HLA-B35): 5.11%; REVEAL binding score, HLA-type A29 (HLA-A29): 15.99%
2 | RLGVRATRK |  |  |  |  |  |  | REVEAL binding score, HLA-type B8 (HLA-B8): 10.21%; REVEAL binding score, HLA-type B14 (HLA-B14): 0.07%; REVEAL binding score, HLA-type B40 (HLA-B40): 23.05%; REVEAL binding score, HLA-type A24 (HLA-A24): 0.28%; REVEAL binding score, HLA-type B15 (HLA-B15): 11.74%; REVEAL binding score, HLA-type A1 (HLA-A1): 20.39%; REVEAL binding score, HLA-type B35 (HLA-B35): 2.83%; REVEAL binding score, HLA-type A29 (HLA-A29): 12.83%
3 | GPRLGVRAT |  |  |  |  |  |  | REVEAL binding score, HLA-type B8 (HLA-B8): 13.18%; REVEAL binding score, HLA-type B14 (HLA-B14): 0.94%; REVEAL binding score, HLA-type B40 (HLA-B40): 19.95%; REVEAL binding score, HLA-type A24 (HLA-A24): 0.05%; REVEAL binding score, HLA-type B15 (HLA-B15): 10.01%; REVEAL binding score, HLA-type A1 (HLA-A1): 13.85%; REVEAL binding score, HLA-type B35 (HLA-B35): 1.83%; REVEAL binding score, HLA-type A29 (HLA-A29): 12.66%
4 | RRGYIPLVGAPLGRRVARALAHGVRV [SP5] | 21358 | 29146 | 6152 | 19065 | 46060 | 40534 | 
5 | RGYIPLVGAPLGRRRVARALAHGVRVR [SP4] | 10751 | 17372 | 2946 | 7540 | 28008 | 41491 | 
6 | RRGYIPLVGAPLGBGRVARALAHGVRV [SP2] | 6677 | 6112 | 1211 |  | 5486 | 3136 | 
7 | KKGYIPLVGAPLGKKVARALAHGVRV [SP11] | 6490 | 13230 | 601 | 1277 | 3562 | 8262 | 
8 | RRGPVVHLTLRGRRGQAGDDFS [SP20] | 19051 | 3383 | 445 | 1268 | 2457 | 7319 | 
9 | WWGYIPLVGAPLGRRVARALAHGVRV [SP13] | 28539 | 9129 |  | 332 | 394 | 568 | 
10 | SFSIELLAL |  |  |  |  |  |  | REVEAL binding score, HLA-type B40 (HLA-B40): 21.04%
11 | RRGPVVHLTLRRRGQAGDDFS [SP19] | 6522 | 6536 | 1625 | 3466 | 7201 | 17018 | 
12 | RRRGYIPLVGAPLGBRVARALAHGVRV [SP8] | 15379 | 17836 | 2917 | 9617 | 28606 | 31976 | 
13 | RRGPVVHLTLRRRGQAGDDFS [SP18] | 5545 | 7751 | 1038 | 1971 | 1334 | 4869 | 
14 | EEGYIPLVGAPLGEEVARALAHGVRV [SP14] | 3704 | 1629 | 62 | 392 | 682 | 1059 | 
15 | WGYIPLVGAPLGRRVARALAHGVRV [SP12] | 59274 | 31222 | 4316 | 8679 | 10869 | 11089 | 
16 | RRGYIPLVGAPLGLRRVARALAHGVRV [SP17] | 67428 |  | 1500 | 12244 | 29967 | 30248 | 
17 | GGGYIPLVGAPLGGGVARALAHGVRV [SP15] | 5076 | 2539 | 600 | 848 | 477 | 1810 | 
18 | BRGYIPLVGAPLGRRVARALAHGVRV [SP7] | 16064 | 21414 | 2766 | 10481 | 30503 | 47922 | 
